Converted amounts (≈) assume the structure as drawn. “And” between values parts separate entries of the source, which are not always exact repeats. Equal values may be shown once. “Also recorded” adds a separate entry of the source. Read-outs that look alike come from different tables or passages of the source.
What was measured:
[1] = pH7; source not stated; cited from earlier work
[2] = target: T1, mouse eugenol OR (mOR-EG) (Mus musculus, UniProt Q920P2); assay: mOR-EG/AC Ca2+ imaging: mOR-EG + Gαolf + CNGC-camp in HEK293T cells; format: cell-based; conditions: for decay time 90% to 10%, AC-dependent Ca2+ response / time of peak, AC-dependent Ca2+ response / time to rise 10% to 90%, AC-dependent Ca2+ response: saturating response parameters; for normalized peak magnitude, mOR-EG/AC response: normalized to eugenol
T1 sequence (Q920P2 1-313): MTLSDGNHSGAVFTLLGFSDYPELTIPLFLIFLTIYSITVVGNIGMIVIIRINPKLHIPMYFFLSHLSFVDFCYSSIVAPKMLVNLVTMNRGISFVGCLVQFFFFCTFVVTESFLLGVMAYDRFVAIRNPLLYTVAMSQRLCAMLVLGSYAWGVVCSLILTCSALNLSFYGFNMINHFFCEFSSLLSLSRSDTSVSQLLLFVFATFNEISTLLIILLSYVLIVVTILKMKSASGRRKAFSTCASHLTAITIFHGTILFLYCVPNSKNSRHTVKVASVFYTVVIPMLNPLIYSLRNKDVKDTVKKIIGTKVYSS

[3] = source not stated; cited from earlier work
[4] = target: T1, mouse eugenol OR (mOR-EG); assay: dual read-out assay, mOR-EG/PLC and mOR-EG/AC responses compared; format: cell-based; conditions: for functional bias between PLC and AC pathways (in words): pair-wise comparison of EC50 values; for AC-/PLC- mediated Ca2+ response (result in words): both read-outs, up to 1-5 mM; for potency in mOR-EG/PLC signaling in comparison to mOR-EG/AC signaling: ratio of EC50 values
[5] = target: T1, mouse eugenol OR (mOR-EG); assay: mOR-EG/PLC Ca2+ imaging: mOR-EG + Gα15 in HEK293T cells; format: cell-based; conditions: for decay time 90% to 10%, PLC-dependent Ca2+ response / time of peak, PLC-dependent Ca2+ response / time to rise 10% to 90%, PLC-dependent Ca2+ response: saturating response parameters
mOR-EG = conditions: incubation at least 15 min; ref [22]; cited from earlier work
[6] = target: T1, mouse eugenol OR (mOR-EG); format: cell-based; conditions: up to 1 mM

| Compound | solubility [1] | decay time 90% to 10%, AC-dependent Ca2+ response [2] | time of peak, AC-dependent Ca2+ response [2] | time to rise 10% to 90%, AC-dependent Ca2+ response [2] | logP [3] | functional bias between PLC and AC pathways (in words) [4] | decay time 90% to 10%, PLC-dependent Ca2+ response [5] | time of peak, PLC-dependent Ca2+ response [5] | time to rise 10% to 90%, PLC-dependent Ca2+ response [5] | AC-/PLC- mediated Ca2+ response (result in words) [4] | also measured |
| --- | --- | --- | --- | --- | --- | --- | --- | --- | --- | --- | --- |
| C=CCc1ccc(OC)c(OC)c1 [methyl eugenol] | 4.3 mmol/L (≈ 766 µg/mL) | 101.2 ± 6 s | 92 ± 3 s | 41.6 ± 2.2 s | 2.7 | activated both pathways with similar EC50 values | 39.8 ± 2.3 s | 19.8 ± 1.2 s | 5.4 ± 0.6 s | – | EC50 [2]: 177 ± 11 µM; EC50 [5]: 165 µM |
| C/C=C/c1ccc(OC)c(OC)c1 [methyl isoeugenol] | 3.6/3.05 mmol/l | – | – | – | – | – | – | – | – | failed to activate any response; also recorded: did not evoke any appreciable Ca^2+ signal; also recorded: does not activate either pathway; also recorded: non agonist, antagonist | agonist activity in cAMP-dependent Cre reporter assay (mOR-EG): strong agonist; antagonism of eugenol-evoked Ca2+ response ([4]; 1mM with 100 μM eugenol, both mOR-EG/Gα15 and mOR-EG/Gαs(olf) cells): completely eliminated Ca^2+ response; also recorded: potent antagonist that inhibits eugenol activation of both the mOR-EG/PLC and mOR-EG/AC responses; response to prolonged application ([4]; data not shown): did not evoke any measurable response |
| COC(=O)c1c(C)cc(O)c(C)c1O [mousse cristal] | – | 117.6 ± 5.3 s | 107.3 ± 2.4 s | 32.6 ± 1.6 s | 10/2.8 | biased activation of the PLC pathway; also recorded: strongly activating both pathways yet with a different apparent affinity | 74 ± 4 s | 30.7 ± 1.4 s | 14.1 ± 0.8 s and 14 ± 1 s | full agonist for mOR-EG | faster Trise of mOR-EG/AC response than eugenol [2]: 30%; normalized peak magnitude, mOR-EG/AC response [2]: 1.12±0.13; potency in mOR-EG/PLC signaling in comparison to mOR-EG/AC signaling [4]: more than 2 fold |
| C=C(C)[C@@H]1CCC2=CC(=O)C[C@@H](C)[C@]2(C)C1 [nootkatone] | 0.24 mmol/L (≈ 52.4 µg/mL) | – | – | – | 3.8 | – | – | – | – | failed to activate any response; also recorded: no effects | – |
| CCC(C)(C)C1CCC(=O)CC1 [orivone] | – | 101 ± 5 s | 94.9 ± 5.3 s | 36.4 ± 2.6 s | – | activated both pathways with similar EC50 values | 47.6 ± 4.1 s | 29.8 ± 2.3 s | 8 ± 1 s | – | – |
| CC(=O)CCc1ccc(O)cc1 [raspberryketone, raspberry ketone] | – | – | – | – | – | – | – | – | – | no effects | AC-/PLC- mediated Ca2+ response (result in words) ([4]; listed as raspberry ketone): failed to activate any response |
| COc1cc(C=O)ccc1O [vanillin] | 28 mmol/L (≈ 4260 µg/mL) | 101.7 ± 2.6 s | 85.3 ± 2.9 s | 31.4 ± 1.3 s | – | activated both pathways with similar EC50 values | 48 ± 2.9 s | 18.6 ± 0.9 s | 8.3 ± 0.5 s | – | – |
| isoeugenol | – | 104 ± 4.8 s | 95.3 ± 4.8 s | 36.7 ± 2.7 s | – | biased activation of the PLC pathway | 54.5 ± 2.6 s | 37.1 ± 3.5 s | 14.8 ± 1.6 s | – | normalized peak magnitude, mOR-EG/AC response [2]: 0.14±0.11; potency in mOR-EG/PLC signaling in comparison to mOR-EG/AC signaling [4]: ~ 8 fold; slow Gαs(olf)-dependent response in dual-response cells [6]: failed to evoke noticeable Gαs(olf)-dependent Ca^2+ signal; slow Gαs(olf)-dependent response in dual-response cells ([6]; listed as Isoeugenol): not able to evoke a slow Gαs(olf)-dependent response; normalized peak magnitude, mOR-EG/PLC response ([5]; normalized to eugenol): 0.38±0.03 |
